Data published in PMC12005787, “Synthetic Lethality of SHP2 and XIAP Suppresses Proliferation and Metastasis in KRAS‐mutant Nonsmall Cell Lung Cancer” (Advanced Science, 2025).
Where two headings read alike, the source gives them in different places. *1 amine or outer side, *2 acyl side, *3 side chain or, on linkers, in order; H or OH if unused. Where a SMILES comes first, the peptide text is derived from it. Bridges are numbered along the chain shown (N, C = ends). Roman numbers before positions name the chains, in order. [ ]: non-standard residue; d: D form. Hexamethylenediamine = C(CCCN[*:2])CCN[*:1]; Dip = N[C@H](C(=O)O)C(c1ccccc1)c1ccccc1; Chg = N[C@H](C(=O)O)C1CCCCC1; NMeA = CN[C@@H](C)C(=O)O

Experiments:
[1] = test system: NCI-H2122, A549, and NCI-H1944 cells; assay: Cell senescence β-galactosidase staining; format: cell-based, human; conditions: NCI‐H2122 cells; candidate drugs 10 μM
Protocol: Cell senescence β-galactosidase staining
NCI-H2122, A549, and NCI-H1944 cells in the logarithmic growth phase were seeded into 48-well plates and cultured overnight. The supernatant was aspirated and fresh serum-free (0%), low-serum (3%), or regular serum (10%) medium with different drugs was added for 48 h. When the supernatant was discarded, β-galactosidase staining fixation fluid were added for 15 min and β-galactosidase staining solution were imported overnight at 37 ℃.
Finally, the staining results were recorded using an inverted microscope.

SHP2 = biological target: T1, SHP2 (Homo sapiens, UniProt Q06124); assay: Cellular thermal shift assay (CETSA); format: binding; conditions: NCI‐H2122 cell lysate
T1 construct: endogenous in cells; host or cells: NCI-H2122
T1 sequence (Q06124 1-593): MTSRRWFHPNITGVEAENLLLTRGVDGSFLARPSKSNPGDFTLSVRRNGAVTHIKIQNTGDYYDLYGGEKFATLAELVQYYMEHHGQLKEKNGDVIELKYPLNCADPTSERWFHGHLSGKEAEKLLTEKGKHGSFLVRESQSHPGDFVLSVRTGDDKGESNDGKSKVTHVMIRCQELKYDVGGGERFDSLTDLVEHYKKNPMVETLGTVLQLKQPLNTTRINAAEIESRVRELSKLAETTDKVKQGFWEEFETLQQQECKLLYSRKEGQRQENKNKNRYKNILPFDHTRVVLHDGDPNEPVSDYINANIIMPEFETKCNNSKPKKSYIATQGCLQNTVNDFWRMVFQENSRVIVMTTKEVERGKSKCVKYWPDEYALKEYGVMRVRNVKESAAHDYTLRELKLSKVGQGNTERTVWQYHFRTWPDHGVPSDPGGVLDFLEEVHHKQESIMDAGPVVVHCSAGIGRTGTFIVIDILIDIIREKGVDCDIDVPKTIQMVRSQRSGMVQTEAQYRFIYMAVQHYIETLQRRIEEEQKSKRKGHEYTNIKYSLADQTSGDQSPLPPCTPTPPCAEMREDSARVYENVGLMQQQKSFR
Protocol: NCI‐H2122 cells were harvested and resuspended with pre‐cooled PBS containing 1% cocktail, which was then frozen in liquid nitrogen for 5 min and thawed in a water bath at 37 °C for 5 min for three repetitions. The supernatant was collected via centrifugation at 4 °C (15 000 × g, 20 min), divided into two equal portions; one was added with test drugs or various concentrations of embelin, and the other was added with DMSO as control and subsequently incubated at 25 °C for 30 min. All samples were heated at temperatures ranging from 52–70 °C for 3 min, and subsequently in an ice bath for 3 min and collected by centrifugation at 4 °C (15 000 × g, 20 min), and added with protein sampling buffer at 100 °C for 5 min, followed by analysis of protein stability using western blotting.

A549 and NCI‐H2122 cells = assay: Cell proliferation in monolayer culture (CCK-8); format: cell-based, human
Protocol: For the adherent cell viability assay, cells in the logarithmic growth phase were seeded in 96-well culture plates at a density of 5×103 well-1 and incubated overnight. Diluted compounds or DMSO were added, or specific treatments were incubated at 37 °C and 5% CO2 for 24 h or 48 h. Cell viability was determined using CCK-8 or CellLightTM Cell Viability Assay Kit, according to the manufacturer's protocol. The luminescence signals of the treated samples were normalized to those of the DMSO group. […]
Figure S7. Targeting SHP2 and XIAP produces a synthetic lethal effect. (A) Effects of NSC-87877 on cell viability of A549 and NCI-H2122 cells after 24 and 48 h were determined using the CCK-8. Bars, ± SEM. The curves were plotted using a variable slope (four-parameter) non-linear fit. (B, E, F, and I) Effects of Na3VO4 (B), birinapant (E), BV-6 (F), and LCL161 (I) on cell viability of human NCI-H2122 cells at 48 h were determined using the CCK-8. *p < 0.05, **p < 0.01 and ***p < 0.001 compared to control group (unpaired two-tailed Student’s t-test).(C, G) Effects of SHP099 (C) and GDC-0152 (G) on cell viability after 24 and 48 h were determined using the CCK-8. Bars, ± SEM. The curves were plotted using a variable slope (four-parameter) non-linear fit.(D, H) Effects of SHP099 (D) and GDC-0152 (H) on cell viability were determined after 48 h using intracellular ATP chemiluminescence. **p < 0.01 and ***p < 0.001 compared to control group (unpaired two-tailed Student’s t-test).(J) Effects of SHP099 and GDC-0152 separately and in combination, and the effect of embelin for 24 h on the cell viability were assessed using intracellular ATP […]
tailed Student’s t-test).(K) Effects of SHP099 and GDC-0152 separately and in combination with […] on the cell viability of human KRAS-WT and -mutant cells were assessed using a colony formation assay. (L, M) A549 and NCI-H2122 cells were instantaneously transfected with siPTPN11 and siXIAP separately and together for 24 h under

ΔSHP2 = biological target: T2, ΔSHP2 (Homo sapiens, UniProt Q06124); assay: PTPs activity assay (DiFMUP); format: biochemical
T2 construct: His‐ΔSHP2, encompassing the peptide from amino acids 205–593 retaining PTP activity; His; made in house; host or cells: E. coli
T2 sequence (Q06124 205-593): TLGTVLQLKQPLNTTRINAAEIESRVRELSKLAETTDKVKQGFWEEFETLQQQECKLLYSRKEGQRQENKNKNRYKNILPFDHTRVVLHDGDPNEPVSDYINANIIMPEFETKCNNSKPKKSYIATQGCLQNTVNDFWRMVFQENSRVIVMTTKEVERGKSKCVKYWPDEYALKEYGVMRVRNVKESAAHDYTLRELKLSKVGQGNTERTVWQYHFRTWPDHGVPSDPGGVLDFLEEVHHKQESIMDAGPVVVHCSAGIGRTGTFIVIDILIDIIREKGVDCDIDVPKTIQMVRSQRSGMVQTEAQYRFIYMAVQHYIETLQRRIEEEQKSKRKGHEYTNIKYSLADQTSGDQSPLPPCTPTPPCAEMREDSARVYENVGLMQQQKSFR
Protocol: (§1) Catalytic activity screening methods for PTPs using candidate compounds were performed as previously described.^[ [77] ^] In brief, soluble fusion PTP proteins, His‐ΔSHP2, encompassing the peptide from amino acids 205–593 retaining PTP activity, His‐ΔSHP2^K325A, His‐ΔSHP1, encompassing the peptide from amino acids 202–595 retaining PTP activity, His‐PTP1B, His‐HePTP, His‐VHR, and His‐TCPTP were cloned, expressed, and purified in E. coli. After determining protein concentration using bicinchoninic acid (BCA) assay kit, 1 µg fusion protein, 10 µM library compound were added in 100 µL reaction mixture (55 mM 4‐(2‐hydroxyethyl)‐1‐piperazineethanesulfonic acid [HEPES], 100 mM sodium chloride [NaCl], 0.5 mM ethylenediaminetetraacetic acid [EDTA], 1 mM dithiothreitol [DTT], 0.01% Triton X‐100, 0.002% bovine serum albumin [BSA], and 0.1% dimethyl sulfoxide [DMSO]) and incubated at 37 °C for 30 min in the dark, with Na3VO4 as positive control. The detection substrate DiFMUP (50 µM) was promptly added to each reaction and functioned at 37 °C for 30 min in the dark. The fluorescence intensity was then measured using Multimode Plate Reader (λa = 358 nm, λe = 455 nm, PerkinElmer, USA).

TCPTP = biological target: T3, TCPTP (Homo sapiens, UniProt P17706); assay: PTPs activity assay (DiFMUP); format: biochemical
T3 construct: His; made in house; host or cells: E. coli
T3 sequence (P17706 1-415): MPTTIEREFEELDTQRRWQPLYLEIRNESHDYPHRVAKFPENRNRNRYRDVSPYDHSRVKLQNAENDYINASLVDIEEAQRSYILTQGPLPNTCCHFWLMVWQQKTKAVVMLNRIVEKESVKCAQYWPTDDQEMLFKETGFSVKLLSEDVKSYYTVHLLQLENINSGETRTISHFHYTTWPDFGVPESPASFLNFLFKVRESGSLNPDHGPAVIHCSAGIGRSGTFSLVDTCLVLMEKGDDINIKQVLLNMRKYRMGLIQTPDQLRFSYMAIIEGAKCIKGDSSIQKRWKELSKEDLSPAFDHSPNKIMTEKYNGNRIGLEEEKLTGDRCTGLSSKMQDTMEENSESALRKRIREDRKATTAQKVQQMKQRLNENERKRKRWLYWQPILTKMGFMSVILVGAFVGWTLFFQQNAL
Protocol: as §1

PTP1B = biological target: T4, PTP1B (Homo sapiens, UniProt P18031); assay: PTPs activity assay (DiFMUP); format: biochemical
T4 construct: His; made in house; host or cells: E. coli
T4 sequence (P18031 1-435): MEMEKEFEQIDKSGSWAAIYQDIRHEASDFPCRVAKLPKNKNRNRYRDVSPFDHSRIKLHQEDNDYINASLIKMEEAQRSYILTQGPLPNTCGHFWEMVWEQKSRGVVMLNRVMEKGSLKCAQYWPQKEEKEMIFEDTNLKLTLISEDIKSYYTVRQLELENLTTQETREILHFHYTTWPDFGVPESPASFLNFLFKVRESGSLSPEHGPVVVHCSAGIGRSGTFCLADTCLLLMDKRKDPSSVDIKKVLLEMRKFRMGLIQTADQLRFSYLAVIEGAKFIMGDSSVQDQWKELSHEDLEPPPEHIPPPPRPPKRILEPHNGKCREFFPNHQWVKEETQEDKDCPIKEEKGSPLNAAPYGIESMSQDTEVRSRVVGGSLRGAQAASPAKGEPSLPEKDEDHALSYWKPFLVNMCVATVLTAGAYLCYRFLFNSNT
Protocol: as §1

ΔSHP1 = biological target: T5, ΔSHP1 (Homo sapiens, UniProt P29350); assay: PTPs activity assay (DiFMUP); format: biochemical
T5 construct: His‐ΔSHP1, encompassing the peptide from amino acids 202–595 retaining PTP activity; His; made in house; host or cells: E. coli
Protocol: as §1

VHR = biological target: T6, VHR (Homo sapiens, UniProt P51452); assay: PTPs activity assay (DiFMUP); format: biochemical
T6 construct: His; made in house; host or cells: E. coli
Protocol: as §1

HePTP = biological target: T7, HePTP (Homo sapiens, UniProt P35236); assay: PTPs activity assay (DiFMUP); format: biochemical
T7 construct: His; made in house; host or cells: E. coli
T7 sequence (P35236 1-360): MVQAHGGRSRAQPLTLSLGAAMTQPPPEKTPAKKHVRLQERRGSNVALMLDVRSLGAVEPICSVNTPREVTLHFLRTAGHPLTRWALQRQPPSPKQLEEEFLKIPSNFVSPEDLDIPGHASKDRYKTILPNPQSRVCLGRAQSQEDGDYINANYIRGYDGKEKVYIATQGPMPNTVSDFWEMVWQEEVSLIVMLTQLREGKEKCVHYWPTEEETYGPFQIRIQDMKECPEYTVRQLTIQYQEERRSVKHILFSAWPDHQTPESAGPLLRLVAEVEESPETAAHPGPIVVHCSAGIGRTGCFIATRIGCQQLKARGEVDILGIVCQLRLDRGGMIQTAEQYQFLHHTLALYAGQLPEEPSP
Protocol: as §1

T5 sequence (P29350 202-595, stated change not applied): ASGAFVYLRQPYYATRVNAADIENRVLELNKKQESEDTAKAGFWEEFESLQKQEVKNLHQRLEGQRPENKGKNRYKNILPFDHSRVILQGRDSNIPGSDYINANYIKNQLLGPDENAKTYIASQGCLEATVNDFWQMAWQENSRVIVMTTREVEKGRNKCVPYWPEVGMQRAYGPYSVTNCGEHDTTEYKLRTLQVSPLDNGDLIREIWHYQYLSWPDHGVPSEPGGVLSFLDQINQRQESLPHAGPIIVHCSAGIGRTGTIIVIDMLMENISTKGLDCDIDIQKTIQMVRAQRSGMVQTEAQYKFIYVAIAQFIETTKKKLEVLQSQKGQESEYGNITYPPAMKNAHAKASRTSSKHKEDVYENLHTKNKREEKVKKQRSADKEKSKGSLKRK
T6 sequence (P51452 whole entry): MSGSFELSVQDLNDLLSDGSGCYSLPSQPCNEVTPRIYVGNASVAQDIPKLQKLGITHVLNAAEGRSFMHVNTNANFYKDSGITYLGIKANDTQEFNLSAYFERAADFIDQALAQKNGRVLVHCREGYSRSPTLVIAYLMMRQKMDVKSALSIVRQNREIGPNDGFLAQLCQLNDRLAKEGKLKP

Compound | induction of cell senescence [1] | effect on SHP2 protein stability (CETSA) (SHP2) | effect on cell proliferation in monolayer cell culture mode (A549 and NCI‐H2122 cells) | IC50 (ΔSHP2) | IC50 (TCPTP) | IC50 (PTP1B; read-out: IC50 of PTPs PTP1B) | IC50 (ΔSHP1) | IC50 (VHR) | IC50 (HePTP) | IC50 (PTP1B)
CN[C@@H](C)C(=O)N[C@H](C(=O)N1CCC[C@H]1c1nc(C(=O)c2ccc(F)cc2)cs1)C1CCCCC1 [LCL‐161] | induced cellular senescence | did not affect SHP2 protein stability | almost no effect | – | – | – | – | – | – | –
CC1(C)CCC(CN2CCN(c3ccc(C(=O)NS(=O)(=O)c4ccc(NCC5CCOCC5)c([N+](=O)[O-])c4)c(Oc4cnc5[nH]ccc5c4)c3)CC2)=C(c2ccc(Cl)cc2)C1 [S8048, Venetoclax] | – | – | – | 2.07 µM | 9.43 µM | 16.6 µM | 81.3 µM | 36.9 µM | 20 µM | –
CC1(C)CCC2=C(O1)c1ccccc1C(=O)C2=O [S7261, β‐Lapachone] | – | – | – | 34.2 µM | > 200 µM | > 200 µM | > 200 µM | > 200 µM | > 200 µM | –
Cc1cc2c(C(C)C)c(O)c(O)c(C=O)c2c(O)c1-c1c(C)cc2c(C(C)C)c(O)c(O)c(C=O)c2c1O [S2812, AT101] | – | – | – | 39.5 µM | 197 µM | 77.6 µM | 197 µM | 141 µM | 135 µM | –
CN[C@@H](C)C(=O)N[C@H](C(=O)N1CCC[C@H]1C(=O)N[C@H](C(=O)NCCCCCCNC(=O)[C@@H](NC(=O)[C@@H]1CCCN1C(=O)[C@@H](NC(=O)[C@H](C)NC)C1CCCCC1)C(c1ccccc1)c1ccccc1)C(c1ccccc1)c1ccccc1)C1CCCCC1 [BV‐6] (I: H-[NMeA][Chg]P[Dip] / II: H-[NMeA][Chg]P[Dip]; linker I:C-II:C via Hexamethylenediamine) | induced cellular senescence | did not affect SHP2 protein stability | partially inhibited cell proliferation | – | – | – | – | – | – | –
CC(C)=CCC[C@]1(C)C=Cc2c(O)c3c(c(CC=C(C)C)c2O1)O[C@]12C(=C[C@@H]4C[C@H]1C(C)(C)O[C@@]2(C/C=C(/C)C(=O)O)C4=O)C3=O [S2448, Gambogic acid] | – | – | – | 11.8 µM | 294 µM | – | > 200 µM | 123 µM | > 200 µM | 30.3 µM
